Square brackets hold non-standard residues; d marks the D form. Peptide text beside a SMILES is read from it.
Tested on: acute CYP-induced cystitis in female Sprague-Dawley rats
Test: Cyclophosphamide-induced acute cystitis, intravenous treatment, visceral pain
Format: in vivo, rat
Settings: 2 mg/kg, i.v.; 24 h after CYP
Procedure: The aim of the present study was to evaluate the effects of intravenous treatment with XG-104 (2 mg/kg) on urinary bladder pain in acute CYP-induced cystitis in female Sprague-Dawley rats. This preclinical model is well-used to test therapeutic approaches for the treatment of interstitial cystitis/painful bladder syndrome (IC/PBS).
Adult female Sprague-Dawley rats (Janvier Labs, Le Genest Saint Isle, France), weighing 215±20 g at the beginning of the experiments, were used. Animals were acclimatized to the laboratory conditions for at least 3 days before the start of any experiments. The animals were allocated to the following four experimental groups (n=10 animals per group):
To induce acute cystitis, a single i.p. injection of CYP at a dose of 150 mg/kg in a final volume of 5 mL/kg was performed. Control rats received physiological saline under the same experimental conditions as CYP (final volume of 5 mL/kg, i.p.).
On the day of each experiment, weight of rats was recorded.
Assessment of referred visceral pain using von Frey filaments: Standardized conditions including fixed time-of-day (a.m. to minimize the potential circadian variations in the behaviours responses) and single-experimenter testing of all animals were applied to minimize variability behavior-based pain testing. Visceral pain including allodynia and hyperalgesia was evaluated by applying to the lower abdomen, close to the urinary bladder, a set of 8 calibrated von Frey filaments of increasing forces (1, 2, 4, 6, 8, 10, 26 and 60 g) with an interstimulus interval of 5 seconds. Prior testing, the abdominal area designed for mechanical stimulation of each animal was shaved. Animals were then placed on a raised wire mesh floor under individual transparent Plexiglas box and acclimatized for at least 30 minutes before starting the von Frey test. Filaments were then applied 1-2 seconds through the mesh floor with enough strength to cause the filament to slightly bend. Each filament was tested 3 times. Care was taken to stimulate different areas within the lower abdominal region in the vicinity of the urinary bladder to avoid desensitization.
The study design differs from that of Example 24 (cf. FIG. 50 A) only in the route of administration (intravenously instead of intravesically) and the doses as specified above. Birefly, acute cystitis was induced by CYP injection (i.p.) at Do (as described above). […]

CC(C)C[C@H](NC(=O)[C@H](CC(N)=O)NC(=O)[C@H](CC(C)C)NC(=O)[C@@H](NC(=O)[C@@H](C)NC(=O)[C@@H]1CCCN1C(=O)[C@H](CCCNC(=N)N)NC(=O)[C@@H](CCCCN)NC(=O)[C@@H]1CCCN1C(=O)[C@H](CCCNC(=N)N)NC(=O)[C@@H](CCCNC(=N)N)NC(=O)[C@H](CCCNC(=N)N)NC(=O)[C@H](CCCNC(=N)N)NC(=O)[C@H](CCC(N)=O)NC(=O)[C@@H](CCCNC(=N)N)NC(=O)[C@H](CCCNC(=N)N)NC(=O)[C@H](CCCCN)NC(=O)[C@H](CCCCN)NC(=O)[C@H](N)CCCNC(=N)N)[C@@H](C)O)C(=O)N[C@H](Cc1ccccc1)C(N)=O [SEQ ID NO: 172, rKKRrQRRrRPkRPaTLNLf] (H-[dR]KKR[dR]QRR[dR]RP[dK]RP[dA]TLNL[dF]-NH2; N-terminus assumed)
AUC 1-8 g (allodynia) vs vehicle: significantly decreased | AUC 8-60 g (hyperalgesia) vs vehicle: significantly reduced | nociceptive scores vs vehicle: significantly decreased | nociceptive threshold vs vehicle: significantly increased

Reference: patent US11331364B2, “Use for JNK inhibitor molecules for treatment of various diseases” (Xigen Inflammation Ltd., priority 2014, dated 2022)
